Test results taken from patent US10590113B2, “6-hydroxy-4-oxo-1,4-dihydropyrimidine-5-carboxamides as APJ agonists” (priority 2016, dated 2020).

target: T1, human APJ receptor (Homo sapiens, UniProt P35414); assay: Intracellular cAMP Accumulation Assay (APJ hcAMP, HTRF); format: cell-based; conditions: not given
T1 construct: expressed in transfected cells; host or cells: HEK293
T1 sequence (P35414 1-380): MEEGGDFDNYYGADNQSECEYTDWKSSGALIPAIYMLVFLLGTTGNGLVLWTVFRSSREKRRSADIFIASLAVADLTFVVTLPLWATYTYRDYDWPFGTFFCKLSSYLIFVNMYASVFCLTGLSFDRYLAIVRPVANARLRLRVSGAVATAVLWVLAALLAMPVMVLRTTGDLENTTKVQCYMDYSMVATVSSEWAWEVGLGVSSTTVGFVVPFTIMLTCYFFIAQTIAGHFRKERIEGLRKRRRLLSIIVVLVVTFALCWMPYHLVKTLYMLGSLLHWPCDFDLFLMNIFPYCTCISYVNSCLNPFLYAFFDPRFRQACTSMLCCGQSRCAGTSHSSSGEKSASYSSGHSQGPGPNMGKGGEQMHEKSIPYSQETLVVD
Outline: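 Stably transfected HEK293 cells (5,000/well) incubated 30 min at room temperature with serially diluted compound, […] and 2 μM forskolin. cAMP measured by HTRF after 60 min with detection reagents, quantified against a cAMP standard curve; EC50 from variable-slope sigmoidal fit of inhibition of forskolin-stimulated cAMP.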

Structure (SMILES) | EC50 [nM]
[2H]C([2H])([2H])Oc1cccc(OC([2H])([2H])[2H])c1-n1c(COCC)nc(=O)c(C(=O)N2CC[C@@H](c3ccccc3)C2)c1O [Example 109, 1-[2,6-bis(^2H3)methoxyphenyl]-2-(ethoxymethyl)-6-hydroxy-5-[(3S)-3-phenylpyrrolidine-1-carbonyl]-1,4-dihydropyrimidin-4-one] | 0.01 to 10

same assay, conditions: human APJ, cAMP accumulation; potency range class; read-out: hAPJ cAMP EC50 Potency range

Structure (SMILES) | EC50 [nM]
COc1cccc(OC)c1-n1c(-c2cc(C)ccn2)nc(=O)c(C(=O)N2CCC(c3ccc(F)cc3F)C2)c1O (single isomer, unassigned) [Example 262, 5-[3-(2,4-difluorophenyl)pyrrolidine-1-carbonyl]-1-(2,6-dimethoxyphenyl)-6-hydroxy-2-(4-methylpyridin-2-yl)-1,4-dihydropyrimidin-4-one] | 0.01 to 10
COc1cccc(OC)c1-n1c(-c2ccc(F)c(C)c2)nc(=O)c(C(=O)N2CCC(c3ncccc3F)C2)c1O (single isomer, unassigned) [Example 255, 1-(2,6-dimethoxyphenyl)-2-(4-fluoro-3-methylphenyl)-5-[3-(3-fluoropyridin-2-yl)pyrrolidine-1-carbonyl]-6-hydroxy-1,4-dihydropyrimidin-4-one] | 0.01 to 10
CCc1cccc(CC)c1-n1c(COC(C)C)nc(O)c(C(=O)N2CCC(c3ccc(Cl)nc3)CC2)c1=O [Example 222, 5-[4-(6-chloropyridin-3-yl)piperidine-1-carbonyl]-3-(2,6-diethylphenyl)-6-hydroxy-2-[(propan-2-yloxy)methyl]-3,4-dihydropyrimidin-4-one] | 100 to 300
CCCCc1nc(=O)c(C(=O)N2CCC(c3ncc(F)cc3F)C2)c(O)n1-c1c(OC)cccc1OC (single isomer, unassigned) [Example 358, 2-butyl-5-(3-(3,5-difluoropyridin-2-yl)pyrrolidine-1-carbonyl)-1-(2,6-dimethoxyphenyl)-6-hydroxypyrimidin-4(1H)-one] | 0.01 to 10
CCOCc1nc(=O)c(C(=O)N2CCC(c3c(F)cccc3F)C2)c(O)n1-c1c(OC)cccc1OC (single isomer, unassigned) [Example 354, 5-[3-(2,6-difluorophenyl)pyrrolidine-1-carbonyl]-1-(2,6-dimethoxyphenyl)-2-(ethoxymethyl)-6-hydroxy-1,4-dihydropyrimidin-4-one] | 0.01 to 10
COc1ccccc1C1CCN(C(=O)c2c(O)n(-c3c(OC)cccc3OC)c(-c3cncc(C)c3)nc2=O)C1 (single isomer, unassigned) [Example 234, 1-(2,6-dimethoxyphenyl)-6-hydroxy-5-[3-(2-methoxyphenyl)pyrrolidine-1-carbonyl]-2-(5-methylpyridin-3-yl)-1,4-dihydropyrimidin-4-one] | 0.01 to 10
CC[C@@H](c1ccccc1)n1c(-c2nc(C)cs2)nc(=O)c(C(=O)N2CCC(c3ncc(F)cc3F)C2)c1O (single isomer, unassigned) [Example 321] | 0.01 to 10

same assay, conditions: human APJ, intracellular cAMP accumulation; read-out: hAPJ cAMP EC50 Potency range

Structure (SMILES) | EC50 [nM]
CCCCc1nc(=O)c(C(=O)N2CC[C@@H](c3ccccc3)C2)c(O)n1[C@H](COC)c1ccccc1 [Example 154, 2-butyl-6-hydroxy-3-[(1S)-2-methoxy-1-phenylethyl]-5-[(3S)-3-phenylpyrrolidine-1-carbonyl]-3,4-dihydropyrimidin-4-one] | 10 to 100
CCCCc1nc(=O)c(C(=O)N2CC[C@H](c3ccccc3)C2)c(O)n1[C@H](C)c1ccccc1OC [Example 122, 2-butyl-6-hydroxy-3-[(1R)-1-(2-methoxyphenyl)ethyl]-5-[(3R)-3-phenylpyrrolidine-1-carbonyl]-3,4-dihydropyrimidin-4-one] | 0.01 to 10
CCc1cccc(CC)c1-n1c(COC(C)C)nc(=O)c(C(=O)N2CCC(c3ccccn3)C2)c1O (single isomer, unassigned) [Example 18, 1-(2,6-diethylphenyl)-6-hydroxy-2-(isopropoxymethyl)-5-(3-(pyridin-2-yl)pyrrolidine-1-carbonyl)pyrimidin-4(1H)-one] | 0.01 to 10
CCCCc1nc(=O)c(C(=O)N2CC[C@@H](c3ccccc3)C2)c(O)n1[C@@H](C)c1cccc(C#N)c1 [Example 149, 3-[(1S)-1-{2-butyl-4-hydroxy-6-oxo-5-[(3S)-3-phenylpyrrolidine-1-carbonyl]-1,6-dihydropyrimidin-1-yl}ethyl]benzonitrile] | 10 to 100
CCCCc1nc(=O)c(C(=O)N2CCC(c3ccccc3)CC2)c(O)n1-c1c(OC)cccc1OC [Example 72, 2-butyl-1-(2,6-dimethoxyphenyl)-6-hydroxy-5-(4-phenylpiperidine-1-carbonyl)-1,4-dihydropyrimidin-4-one] | 10 to 100
CCCCc1nc(=O)c(C(=O)N2CC[C@H](c3ccccc3)C2)c(O)n1[C@H](C)c1ccccc1 [Example 117, 2-butyl-6-hydroxy-3-[(1R)-1-phenylethyl]-5-[(3R)-3-phenylpyrrolidine-1-carbonyl]-3,4-dihydropyrimidin-4-one] | 0.01 to 10
CC[C@@H](c1cc(F)cc(F)c1)n1c(-c2ccn(CC)n2)nc(=O)c(C(=O)N2CCC(c3cc(F)ccn3)C2)c1O (single isomer, unassigned) [Example 202] | 0.01 to 10
CCCCc1nc(=O)c(C(=O)N2CC[C@H](c3ccccc3)C2)c(O)n1C(C)C [Example 150, 2-butyl-6-hydroxy-5-[(3R)-3-phenylpyrrolidine-1-carbonyl]-3-(propan-2-yl)-3,4-dihydropyrimidin-4-one] | 10 to 100
CC[C@@H](c1cc(F)cc(F)c1)n1c(-c2ccn(C)n2)nc(=O)c(C(=O)N2CCC(c3cc(F)ccn3)C2)c1O (single isomer, unassigned) [Example 200] | 0.01 to 10
CCOCc1nc(=O)c(C(=O)N2CCC(c3ccc(F)cc3)C2)c(O)n1-c1c(OC)cccc1OC (single isomer, unassigned) [Example 57, 1-(2,6-dimethoxyphenyl)-2-(ethoxymethyl)-5-[3-(4-fluorophenyl)pyrrolidine-1-carbonyl]-6-hydroxy-1,4-dihydropyrimidin-4-one] | 0.01 to 10
CCCCc1nc(=O)c(C(=O)N2CCC(Cc3ccccc3)C2)c(O)n1-c1c(OC)cccc1OC (racemic) [Example 73, 5-(3-benzylpyrrolidine-1-carbonyl)-2-butyl-1-(2,6-dimethoxyphenyl)-6-hydroxy-1,4-dihydropyrimidin-4-one] | 0.01 to 10
CCCCc1nc(=O)c(C(=O)N2CC[C@@H](c3ccccc3)C2)c(O)n1[C@@H](CC)c1ccccc1 [Example 121, 2-butyl-6-hydroxy-3-[(1S)-1-phenylpropyl]-5-[(3S)-3-phenylpyrrolidine-1-carbonyl]-3,4-dihydropyrimidin-4-one] | 0.01 to 10

same assay, conditions: read-out: hAPJ cAMP EC50 Potency range

Structure (SMILES) | EC50 [nM]
CCOCc1nc(=O)c(C(=O)N2CC[C@H](OCc3ccccc3)C2)c(O)n1-c1c(OC)cccc1OC [Example 376, (S)-5-(3-(benzyloxy)pyrrolidine-1-carbonyl)-1-(2,6-dimethoxyphenyl)-2-(ethoxymethyl)-6-hydroxypyrimidin-4(1H)-one] | 0.01 to 10
CCCCc1nc(=O)c(C(=O)N2CCC(Oc3cc(F)ccc3Cl)CC2)c(O)n1-c1c(OC)cccc1OC [Example 385, 2-butyl-5-(4-(2-chloro-5-fluorophenoxy)piperidine-1-carbonyl)-1-(2,6-dimethoxyphenyl)-6-hydroxypyrimidin-4(1H)-one] | 0.01 to 10
